Data reported in patent publication US9765060B2 (Gilead Sciences, Inc., priority 2014, dated 2017).

Target: PI3K isoform δ (Homo sapiens (Human), UniProt O00329)
Assay: TR-FRET assay of enzymatic activity of class I PI3K isoforms
Conditions: read-out: IC50 (nM) for PI3K isoform δ (Table 3); TR-FRET; 2× Km ATP, 2 μM PIP2; incubated for 30 minutes at 25° C.
From the text: TR-FRET monitored the formation of 3,4,5-inositol triphosphate molecule that competed with fluorescently labeled PIP3 for binding to the GRP-1 pleckstrin homology domain protein. […] Class I PI3K isoforms were expressed and purified as heterodimeric recombinant proteins. All assay reagents and buffers for the TR-FRET assay were purchased from Millipore.

Sequence of PI3K isoform δ (O00329 whole entry, canonical isoform): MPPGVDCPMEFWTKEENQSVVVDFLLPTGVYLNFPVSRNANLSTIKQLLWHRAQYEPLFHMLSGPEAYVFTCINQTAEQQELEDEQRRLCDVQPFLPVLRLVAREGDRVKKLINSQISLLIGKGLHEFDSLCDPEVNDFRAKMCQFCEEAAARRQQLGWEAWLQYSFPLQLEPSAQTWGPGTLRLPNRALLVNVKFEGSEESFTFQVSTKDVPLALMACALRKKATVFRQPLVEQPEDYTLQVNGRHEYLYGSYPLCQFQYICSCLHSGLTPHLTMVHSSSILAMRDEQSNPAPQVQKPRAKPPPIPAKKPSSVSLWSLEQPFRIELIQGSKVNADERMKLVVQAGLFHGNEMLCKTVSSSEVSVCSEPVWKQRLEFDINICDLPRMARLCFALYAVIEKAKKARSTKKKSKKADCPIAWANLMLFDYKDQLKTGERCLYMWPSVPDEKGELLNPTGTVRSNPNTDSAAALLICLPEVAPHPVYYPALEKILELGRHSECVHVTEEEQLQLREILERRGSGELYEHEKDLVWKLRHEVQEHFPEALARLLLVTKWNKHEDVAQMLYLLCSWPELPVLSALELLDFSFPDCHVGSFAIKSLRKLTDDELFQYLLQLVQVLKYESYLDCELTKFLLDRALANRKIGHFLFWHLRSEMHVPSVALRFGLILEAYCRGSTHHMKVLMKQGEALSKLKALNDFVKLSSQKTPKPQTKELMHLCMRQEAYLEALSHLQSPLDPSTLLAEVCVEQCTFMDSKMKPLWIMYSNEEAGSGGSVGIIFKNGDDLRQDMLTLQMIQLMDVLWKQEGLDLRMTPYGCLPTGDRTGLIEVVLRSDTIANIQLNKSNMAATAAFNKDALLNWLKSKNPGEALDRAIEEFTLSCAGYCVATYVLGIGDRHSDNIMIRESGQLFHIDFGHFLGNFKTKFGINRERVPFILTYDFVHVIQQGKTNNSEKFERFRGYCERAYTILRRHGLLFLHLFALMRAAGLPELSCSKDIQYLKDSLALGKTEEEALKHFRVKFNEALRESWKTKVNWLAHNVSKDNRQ
Sequence of PI3K isoform δ (P27986 whole entry partner, canonical isoform): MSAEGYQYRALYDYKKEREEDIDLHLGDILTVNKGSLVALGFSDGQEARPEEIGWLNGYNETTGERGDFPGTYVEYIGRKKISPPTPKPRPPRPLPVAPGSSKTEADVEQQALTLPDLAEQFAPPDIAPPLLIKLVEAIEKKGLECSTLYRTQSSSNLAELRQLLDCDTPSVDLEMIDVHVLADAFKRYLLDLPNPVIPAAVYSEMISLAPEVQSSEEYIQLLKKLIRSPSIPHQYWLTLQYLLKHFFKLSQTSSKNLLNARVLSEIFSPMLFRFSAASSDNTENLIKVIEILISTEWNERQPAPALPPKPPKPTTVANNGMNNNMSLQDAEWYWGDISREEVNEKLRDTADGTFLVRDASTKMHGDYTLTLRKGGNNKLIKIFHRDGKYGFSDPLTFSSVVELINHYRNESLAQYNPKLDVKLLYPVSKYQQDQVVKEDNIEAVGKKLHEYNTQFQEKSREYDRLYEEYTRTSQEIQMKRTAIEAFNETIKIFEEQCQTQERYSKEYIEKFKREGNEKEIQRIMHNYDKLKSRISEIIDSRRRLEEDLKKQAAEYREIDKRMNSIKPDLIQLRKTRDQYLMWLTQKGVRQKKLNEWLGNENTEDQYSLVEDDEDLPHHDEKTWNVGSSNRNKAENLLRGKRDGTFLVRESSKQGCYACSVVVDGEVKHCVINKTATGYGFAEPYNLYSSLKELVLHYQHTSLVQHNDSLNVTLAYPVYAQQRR

IC50 [nM]	SMILES
2	C[C@H](Nc1nc(N)nc(N)c1C#N)c1nc2cccc(CCCN3CCC(F)(F)C3)c2c(=O)n1-c1ccccc1 [Compound 47, (S)-2,4-diamino-6-((1-(5-(3-(3,3-difluoropyrrolidin-1-yl)propyl)-4-oxo-3-phenyl-3,4-dihydroquinazolin-2-yl)ethyl)amino)pyrimidine-5-carbonitrile]
4	Cc1ccc(Cl)c2c(=O)n(-c3cc(F)cc(F)c3)c([C@@H]3CCCN3c3nc(N)nc(N)c3C#N)nc12 [Compound 84, (S)-2,4-diamino-6-(2-(5-chloro-3-(3,5-difluorophenyl)-8-methyl-4-oxo-3,4-dihydroquinazolin-2-yl)pyrrolidin-1-yl)pyrimidine-5-carbonitrile]
110	N#Cc1c(N)nc(N)nc1N1CC[C@H]1c1nc2cccc(Cl)c2c(=O)n1-c1cc(F)cc(F)c1 [Compound 67, (S)-2,4-diamino-6-(2-(5-chloro-3-(3,5-difluorophenyl)-4-oxo-3,4-dihydroquinazolin-2-yl)azetidin-1-yl)pyrimidine-5-carbonitrile]
